Measured values reported in ChEMBL document CHEMBL3124876, “A perylene derivative regulates HIF-1α and Stat3 signaling pathways” (Bioorg Med Chem, 2014).
Calls of active or inactive are those of the source. The rule behind the calls is not given here.

Columns and labels:
[1] = biological target: Endothelial PAS domain-containing protein 1 (Homo sapiens) (UniProt Q99814); test: Inhibition of HIF-2 alpha in human MDA-MB-468 cells at 1 to 20 uM by Western blotting analysis in hypoxia condition; assay type: cell-based
Endothelial PAS domain-containing protein 1 (Homo sapiens), sequence (Q99814 whole entry, the tested form may be a part): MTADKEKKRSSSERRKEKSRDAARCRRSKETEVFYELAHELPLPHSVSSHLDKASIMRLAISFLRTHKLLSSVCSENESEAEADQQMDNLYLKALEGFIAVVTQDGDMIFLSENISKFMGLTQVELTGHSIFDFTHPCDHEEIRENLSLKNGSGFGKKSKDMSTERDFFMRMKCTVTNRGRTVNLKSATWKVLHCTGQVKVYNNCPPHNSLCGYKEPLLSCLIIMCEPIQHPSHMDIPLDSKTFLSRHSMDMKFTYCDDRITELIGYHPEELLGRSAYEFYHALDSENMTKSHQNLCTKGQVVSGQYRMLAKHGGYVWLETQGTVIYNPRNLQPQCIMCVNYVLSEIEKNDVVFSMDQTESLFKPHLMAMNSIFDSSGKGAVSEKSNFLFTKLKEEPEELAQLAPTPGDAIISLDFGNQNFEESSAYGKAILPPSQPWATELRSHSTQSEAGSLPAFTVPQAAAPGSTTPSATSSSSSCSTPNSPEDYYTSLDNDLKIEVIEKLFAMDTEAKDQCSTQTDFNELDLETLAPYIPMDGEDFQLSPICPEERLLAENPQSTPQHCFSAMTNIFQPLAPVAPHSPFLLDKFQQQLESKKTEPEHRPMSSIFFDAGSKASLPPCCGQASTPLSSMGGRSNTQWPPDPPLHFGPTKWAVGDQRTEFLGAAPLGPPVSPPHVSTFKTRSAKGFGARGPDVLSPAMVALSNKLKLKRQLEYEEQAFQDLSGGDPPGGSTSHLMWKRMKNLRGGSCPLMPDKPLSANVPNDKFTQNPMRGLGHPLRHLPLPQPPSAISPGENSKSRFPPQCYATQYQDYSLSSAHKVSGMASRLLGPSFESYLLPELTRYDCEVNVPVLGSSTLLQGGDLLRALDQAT

PANC-1 = test: Antitumor activity against human PANC1 cells xenografted in Balb nu/nu mouse assessed as tumor regression at 2 mg/kg, ip administered every other day for 10 days measured after 19 days; assay type: functional, organism-based; parameters: dose 2 mg/kg
[2] = Reduction of HIF-1 alpha mRNA expression in human PANC1 cells at 5 to 10 uM by qRT-PCR analysis; assay type: functional, cell-based; details: PANC-1
[3] = biological target: Endothelial PAS domain-containing protein 1 (Homo sapiens) (UniProt Q99814); test: Inhibition of HIF-2 alpha in human OVCAR3 cells at 1 to 20 uM by Western blotting analysis in hypoxia condition; assay type: cell-based; details: OVCAR-3
MCF7 = test: Induction of apoptosis in human MCF7 cells assessed as reduction in cell viability at 8 uM after 12 to 48 hrs by MTT assay; assay type: functional, cell-based

Question: With `CN(C)CCCN1C(=O)c2ccc3c4ccc5c6c(ccc(c7ccc(c2c37)C1=O)c64)C(=O)N(CCCN(C)C)C5=O` as the compound, how does the inhibition [1] read?
Answer: Its inhibition is “Active”.

Question: And the Activity (PANC-1)?
Answer: Its Activity is “Active”.

Question: What about the Activity [2] of the same compound?
Answer: Its Activity is “inactive”.

Question: And the inhibition [3]?
Answer: Its inhibition is “Active”.

Question: What about the Activity (MCF7) of the same compound?
Answer: Its Activity is “Active”.
